Literature values in patent publication US9873698B2, “Spirocycles as inhibitors of 11-beta hydroxyl steroid dehydrogenase type 1” (Incyte Corporation, priority 2007, dated 2018).

Biological target: T1, 11βHSD1 (Homo sapiens, UniProt P28845)
T1 construct: host or cells: healthy volunteers, eye (in vivo)
Settings: healthy volunteers, after seven days of carbenoxolone treatment

T1 sequence (P28845 whole entry): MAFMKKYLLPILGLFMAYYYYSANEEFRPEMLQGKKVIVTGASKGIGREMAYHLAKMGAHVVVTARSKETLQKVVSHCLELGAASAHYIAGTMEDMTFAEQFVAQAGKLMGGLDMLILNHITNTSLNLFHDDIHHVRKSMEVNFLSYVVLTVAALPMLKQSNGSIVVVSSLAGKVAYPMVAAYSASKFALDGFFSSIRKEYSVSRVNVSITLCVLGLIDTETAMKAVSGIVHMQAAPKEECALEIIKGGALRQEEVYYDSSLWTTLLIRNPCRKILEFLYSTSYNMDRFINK

Question: With CC1(C)[C@@H](OC(=O)CCC(=O)O)CC[C@]2(C)[C@H]3C(=O)C=C4[C@@H]5C[C@@](C)(C(=O)O)CC[C@]5(C)CC[C@@]4(C)[C@]3(C)CC[C@@H]12 [carbenoxolone] as the compound, how does the “IOP reduced by” value read?
Answer: Its value is 18%.
